Laboratory results reported in US20090105341A1, “PROCESS FOR THE PRODUCTION OF TRANS-10, CIS 12 OCTADECADIENOIC ACID” (Teagasc Dairy Products Research Centre, priority 2005, published 2009).
Like-named read-outs stand apart in the source and are kept apart here.

Columns and labels:
[1] = tested on: human colon cancer cells SW480; assay: Anti-proliferative activity of fermented oils, MTS cell viability
Method: The probiotic strain Lactobacillus paracasei ssp. paracasei NFBC 338 (Lb. paracasei NFBC 338) was previously isolated from the human gastrointestinal tract (GIT), and obtained from University College Cork, Ireland under a restricted materials transfer agreement. Lb. paracasei NFBC 338 was routinely cultured overnight (˜17 h) in MRS broth (Oxoid Ltd., Hampshire, UK) and incubated at 37° C. under anaerobic conditions using anaerobic jars containing Anaerocult A gas packs (Merck, Darmstedt, Germany). L. lactis carrying the plasmids pNZ44 were routinely cultured in the presence of chloramphenicol (5 μg/ml) as a selective marker. Lb. paracasei NFBC harboring the vector pMSP3535 were routinely cultured with erythromycin (10 μg/ml) as selective marker. E. coli TOP 10 (Invitrogen) harbouring the plasmid pNZ44 was cultured in LB (Luria-Bertani)-media supplemented with chloramphenicol (20 μg/ml). Human colon cancer cells were obtained from the American Type Culture Collection (ATCC, Manassas, Va., USA). The t10, c12 CLA isomer (98%+purity) was obtained from Matreya (Matreya Inc., PA, USA;). Cell culture media and supplements were purchased from Sigma Aldrich Ireland Ltd. (Dublin, Ireland), unless otherwise stated. SW480 cells were maintained in Dulbecco's […] (DMEM) supplemented with 5% (v/v) fetal bovine serum, 0.2 mM L-glutamine, 1 mM HEPES and 1 unit/ml penicillin and streptomycin. SW480 cells were grown in 96 well plates and maintained at 37° C. in a humidified atmosphere and a pH of 7.2-7.4 by a required flow of 95% air and 5% CO2.
To examine the anti-proliferative activity of the oils extracted following fermentation of the cultures (L. lactis pNZ44-coPAI and E. coli pNZ44-coPAI) in respective media containing linoleic acid (0.5 mg/ml), human colon cancer cells SW480 were cultured in the presence of different concentrations of the fermented oils. Initially, 1×10^4 cells were seeded in wells and cultured for 24 h at 37° C. to allow the cells to adhere to the surface prior to treatment with 5-20 μg t10, c12 CLA (from fermented oils and t10, c12 CLA standards in ethanol) and 5-25 μg linoleic acid (control unfermented oil and Sigma standard)/ml of media. […] Control flasks were supplemented with ethanol to a final concentration of 0.1% (v/v). Following incubation for 5 days, cell viability was measured and relative cell number were determined using the MTS method (Promega Corporation, Madison, Wis., USA), a colorimetric method for determining the number of viable cells in proliferation or cytotoxicity assays subsequent to incubation with MTS tetrazolium compound. Following incubation with MTS for 2 h, the absorbance was recorded at 492 nm with a 96-well plate reader. Cell viability (%) after treatment is expressed relative to the ethanol control, which represented 100%.
All figures are related to ethanol controls=100% cell viability.

[2] = tested on: SW480 cells; conditions: cited from earlier work; for Effect on SW480 cancer cells: 2003; for Reduction of cell viability: SW480, Miller et al. (2002)
[3] = dairy cows, cited from earlier work
[4] = tested on: MCF-7 breast cancer cell line; conditions: cited from earlier work; for Decrease in cell numbers / cell viability: MCF-7, 20 μg/ml for 8 days, O'Shea et al., 1999

SMILES: CCCCC/C=C\C/C=C\CCCCCCCC(=O)O [linoleic acid, 9 cis, 12 cis-octadecadienoic acid]
- viability at 25 µg/mL ([1]; Homo sapiens, SW480, 120 h, read-out: Cell viability): 93.2%
- Difference in cell viability versus control-linoleic acid (unfermented oil) ([1]; Student's t test): No significant difference
- Effect on SW480 cancer cells ([2]; 16.9 μg/ml media (60.2 μM), Miller et al.): slightly proliferative effect
- Effect on SW480 cancer cells ([2]; 42.8 μg/ml media (152.5 μM), Miller et al.): anti-proliferative effect
- Increase of viability ([2]; SW480, same amount (16 μg/ml), 4 days): 23%

SMILES: CCCCC/C=C\C=C\CCCCCCCCC(=O)O [t10, c12 CLA, trans-10, cis-12 octadecadienoic acid]
- Decrease in milk fat yield ([3]; 4 days abomasal infusion): 44%
- Reduction in milk fat percentage ([3]; 4 days abomasal infusion): 42%
- Difference in cell viability versus L. lactis t10, c12 CLA ([1]; 10-15 μg/ml (p<0.001) and 20 μg/ml (p<0.01)): significant difference
- Difference in cell viability versus E. coli t10, c12 CLA (fermented oil) ([1]; at any concentration, Student's t test): no significant difference
- Decrease in cell numbers / cell viability [4]: 15%
- Reduction of viability ([4]; MCF-7, 4 days incubation with 16 μg/ml, Miller et al., 2001): 50-60%
- Reduction of viability ([2]; SW480, 4 days incubation with 16 μg/ml, Miller et al., 2001): 50-60%
- Reduction of cell viability [2]: 47-61%

SMILES: CCCCCC/C=C/C=C\CCCCCCCC(=O)O [c9, t11 CLA, cis-9, trans-11-octadecadienoic acid]
- Effect on milk fat ([3]; abomasal infusion): no effect
- Decrease in cell numbers / cell viability [4]: 60%
- Reduction of cell viability [2]: 40-52%

SMILES: CCCCC/C=C\C/C=C\CCCCCCCC(=O)O [control-unfermented LA]
- Effect on the cell viability ([1]; SW480, 5-25 μg/ml linoleic acid): only a minor effect
